According to publication PMC5006061 (Biochimie, 2016):

Experiments:
GLUT1 [1] = target: T1, GLUT1 (Mus musculus, UniProt P17809); experiment: Inhibition of 3H-2-deoxyglucose uptake in L929 cells; format: cell-based
T1 sequence (P17809 1-492): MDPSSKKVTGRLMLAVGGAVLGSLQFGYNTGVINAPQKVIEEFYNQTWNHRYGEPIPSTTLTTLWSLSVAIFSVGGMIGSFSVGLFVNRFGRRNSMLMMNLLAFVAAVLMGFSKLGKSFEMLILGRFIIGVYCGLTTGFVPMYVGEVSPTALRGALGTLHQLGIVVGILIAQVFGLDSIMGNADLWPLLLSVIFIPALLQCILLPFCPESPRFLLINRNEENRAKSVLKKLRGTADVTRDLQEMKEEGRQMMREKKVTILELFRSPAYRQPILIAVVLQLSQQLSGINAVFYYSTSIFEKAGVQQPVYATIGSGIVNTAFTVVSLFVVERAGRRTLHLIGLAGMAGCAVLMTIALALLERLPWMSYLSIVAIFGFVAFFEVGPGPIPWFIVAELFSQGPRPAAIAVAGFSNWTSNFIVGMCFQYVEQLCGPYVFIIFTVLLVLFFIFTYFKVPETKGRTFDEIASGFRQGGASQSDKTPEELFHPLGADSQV

GLUT1 [2] = target: T2, GLUT1 (Homo sapiens, UniProt P11166); experiment: Reduction of specific 3H-cytochalasin B binding in HCLE cells; format: cell-based
T2 sequence (P11166 1-492): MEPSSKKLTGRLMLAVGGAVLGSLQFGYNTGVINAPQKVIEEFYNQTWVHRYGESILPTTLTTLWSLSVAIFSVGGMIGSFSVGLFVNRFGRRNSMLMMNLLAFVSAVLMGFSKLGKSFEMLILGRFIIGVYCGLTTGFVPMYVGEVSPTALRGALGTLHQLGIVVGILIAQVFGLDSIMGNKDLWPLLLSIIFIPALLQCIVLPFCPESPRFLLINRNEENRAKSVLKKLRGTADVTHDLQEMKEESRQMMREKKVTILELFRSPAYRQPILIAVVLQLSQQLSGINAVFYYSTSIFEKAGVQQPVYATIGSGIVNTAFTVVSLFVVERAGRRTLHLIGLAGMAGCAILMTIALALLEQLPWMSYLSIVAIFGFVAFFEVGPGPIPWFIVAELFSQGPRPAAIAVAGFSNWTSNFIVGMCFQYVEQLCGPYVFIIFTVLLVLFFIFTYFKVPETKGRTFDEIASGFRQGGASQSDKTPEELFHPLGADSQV

## COc1cc(/C=C/C(=O)CC(=O)/C=C/c2ccc(O)c(OC)c2)ccc1O [Cur, Curcumin]
GLUT1 [1]
  IC50: 19 µM
GLUT1 [2]
  Reduction of specific 3H-cytochalasin B binding in HCLE cells; 2DG uptake inhibi: 80% reduction at 75
